The source made the active and inactive calls. No cut-off for these calls is given here.
What was measured:
[1] = system: Cortex; experiment: Ex vivo antiinflammatory activity in Sprague-Dawley rat cortex assessed as inhibition of LPS-induced PGE2 production at 1 uM incubated for 4 hrs followed by LPS addition by radioimmunoassay; format: functional, tissue-based
[2] = system: Liver; experiment: Ex vivo antiinflammatory activity in Sprague-Dawley rat liver assessed as inhibition of LPS-induced PGE2 production at 1 uM incubated for 4 hrs followed by LPS addition by radioimmunoassay; format: functional, tissue-based
[3] = target: T1, Peroxisome proliferator-activated receptor alpha (Homo sapiens, UniProt Q07869); experiment: Transactivation of GAL4-tagged human PPARalpha LBD expressed in human HepG2 cells at 100 nM to 100 uM incubated for 20 to 22 hrs by luciferase reporter gene assay; format: cell-based
T1 sequence (Q07869 whole entry): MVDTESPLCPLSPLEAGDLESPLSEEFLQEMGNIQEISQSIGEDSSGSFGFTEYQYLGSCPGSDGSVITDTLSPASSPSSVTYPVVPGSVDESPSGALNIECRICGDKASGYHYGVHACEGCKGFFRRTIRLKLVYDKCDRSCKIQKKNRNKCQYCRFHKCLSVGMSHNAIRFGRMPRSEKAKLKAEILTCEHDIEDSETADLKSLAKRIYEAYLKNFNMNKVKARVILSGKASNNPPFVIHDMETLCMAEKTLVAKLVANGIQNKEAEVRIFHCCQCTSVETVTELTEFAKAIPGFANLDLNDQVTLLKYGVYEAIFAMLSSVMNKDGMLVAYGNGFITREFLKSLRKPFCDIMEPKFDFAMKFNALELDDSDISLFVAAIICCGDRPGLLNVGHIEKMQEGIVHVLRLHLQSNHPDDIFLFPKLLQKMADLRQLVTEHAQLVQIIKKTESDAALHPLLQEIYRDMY

[4] = target: T2, Peroxisome proliferator-activated receptor gamma (Homo sapiens) (UniProt P37231); experiment: Transactivation of GAL4-tagged human PPARgamma LBD expressed in human HepG2 cells at 100 nM to 100 uM incubated for 20 to 22 hrs by luciferase reporter gene assay relative to rosiglitazone; format: cell-based
T2 sequence (whole entry): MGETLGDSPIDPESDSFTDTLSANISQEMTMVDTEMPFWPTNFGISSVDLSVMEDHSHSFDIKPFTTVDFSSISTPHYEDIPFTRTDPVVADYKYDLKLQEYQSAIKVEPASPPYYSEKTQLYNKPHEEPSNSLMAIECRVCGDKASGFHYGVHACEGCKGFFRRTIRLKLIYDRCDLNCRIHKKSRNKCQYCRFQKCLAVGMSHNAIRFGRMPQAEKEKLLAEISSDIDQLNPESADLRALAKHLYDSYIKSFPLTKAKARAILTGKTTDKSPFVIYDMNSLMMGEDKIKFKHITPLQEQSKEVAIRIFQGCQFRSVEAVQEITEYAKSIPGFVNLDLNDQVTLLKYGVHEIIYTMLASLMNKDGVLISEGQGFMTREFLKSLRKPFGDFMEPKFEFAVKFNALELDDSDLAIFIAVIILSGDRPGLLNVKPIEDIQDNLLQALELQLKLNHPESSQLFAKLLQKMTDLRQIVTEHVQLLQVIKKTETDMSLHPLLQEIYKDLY

[5] = target: T3, Peroxisome proliferator-activated receptor delta (Homo sapiens) (UniProt Q03181); experiment: Transactivation of GAL4-tagged human PPARdelta LBD expressed in human HepG2 cells at 100 nM to 100 uM incubated for 20 to 22 hrs by luciferase reporter gene assay relative to L165,041; format: cell-based
T3 sequence (whole entry): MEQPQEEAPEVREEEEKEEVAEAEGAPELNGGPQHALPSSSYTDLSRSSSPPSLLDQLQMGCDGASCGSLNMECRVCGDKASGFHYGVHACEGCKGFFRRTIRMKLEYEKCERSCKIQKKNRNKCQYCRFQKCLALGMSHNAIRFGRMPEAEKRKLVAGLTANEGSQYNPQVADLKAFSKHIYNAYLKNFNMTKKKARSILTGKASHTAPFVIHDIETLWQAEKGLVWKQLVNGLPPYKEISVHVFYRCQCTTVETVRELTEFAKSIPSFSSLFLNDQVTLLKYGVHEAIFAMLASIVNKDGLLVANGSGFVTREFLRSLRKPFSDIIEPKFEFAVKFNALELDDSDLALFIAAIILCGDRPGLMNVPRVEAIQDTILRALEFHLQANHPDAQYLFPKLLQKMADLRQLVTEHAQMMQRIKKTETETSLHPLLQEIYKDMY

[6] = target: T4, Peroxisome proliferator-activated receptor delta (Homo sapiens, UniProt Q03181); experiment: Transactivation of GAL4-tagged human PPARdelta LBD expressed in human HepG2 cells at 100 nM to 100 uM incubated for 20 to 22 hrs by luciferase reporter gene assay; format: cell-based
T4 sequence (Q03181 whole entry): T3 sequence (whole entry)

[7] = target: T5, Peroxisome proliferator-activated receptor alpha (Homo sapiens) (UniProt Q07869); experiment: Transactivation of GAL4-tagged human PPARalpha LBD expressed in human HepG2 cells at 100 nM to 100 uM incubated for 20 to 22 hrs by luciferase reporter gene assay relative to clofibric acid; format: cell-based
T5 sequence (whole entry): T1 sequence (Q07869 whole entry)

[8] = target: T5, Peroxisome proliferator-activated receptor alpha (Homo sapiens); experiment: Potency index, ratio of EC50 for GL479 to EC50 for test compound for transactivation of GAL4-tagged human PPARalpha LBD expressed in human HepG2 cells incubated for 20 to 22 hrs by luciferase reporter gene assay; format: cell-based
[9] = system: Cortex; experiment: Ex vivo antiinflammatory activity in Sprague-Dawley rat cortex assessed as inhibition of LPS-induced PGE2 production at 0.1 to 10 uM incubated for 4 hrs followed by LPS addition by radioimmunoassay; format: functional, tissue-based
[10] = target: T5, Peroxisome proliferator-activated receptor alpha (Homo sapiens); experiment: Agonist activity at PPARalpha in human HepG2 cells assessed as increase in CPT1A RNA expression at 100 uM incubated for 48 hrs by qRT-PCR analysis relative to control; format: cell-based
[11] = target: T2, Peroxisome proliferator-activated receptor gamma (Homo sapiens); experiment: Agonist activity at PPARgamma in human HepG2 cells assessed as increase in GLUT1 RNA expression at 100 uM incubated for 48 hrs by qRT-PCR analysis relative to control; format: cell-based
[12] = system: Liver; experiment: Ex vivo antiinflammatory activity in Sprague-Dawley rat liver assessed as inhibition of LPS-induced PGE2 production at 0.1 to 10 uM incubated for 4 hrs followed by LPS addition by radioimmunoassay; format: functional, tissue-based
[13] = target: T6, Peroxisome proliferator-activated receptor gamma (Homo sapiens, UniProt P37231); experiment: Transactivation of GAL4-tagged human PPARgamma LBD expressed in human HepG2 cells at 100 nM to 100 uM incubated for 20 to 22 hrs by luciferase reporter gene assay; format: cell-based
T6 sequence (P37231 whole entry): T2 sequence (whole entry)

[14] = target: T3, Peroxisome proliferator-activated receptor delta (Homo sapiens); experiment: Agonist activity at PPARdelta in human HepG2 cells assessed as increase in PDK4 RNA expression at 100 uM incubated for 48 hrs by qRT-PCR analysis relative to control; format: cell-based
[15] = target: T3, Peroxisome proliferator-activated receptor delta (Homo sapiens); experiment: Agonist activity at PPARdelta in human HepG2 cells assessed as increase in PDK4 RNA expression at 2 uM incubated for 48 hrs by qRT-PCR analysis relative to control; format: cell-based

Row | Compound | EC50 [3] [nM] | Emax [4] [%] | Emax [5] [%] | EC50 [6] [nM] | Emax [7] [%] | further results
1 | Cc1cccc(Nc2cc(Cl)nc(SCC(=O)O)n2)c1C |  |  |  |  |  | Activity [1]: Active; Activity [2]: Active
2 | CC(C)(Oc1ccc(OCCc2ccc(/N=N/c3ccc(C#N)cc3)cc2)cc1)C(=O)O | 1400 | 12 | 50 | 2800 | 61 | 
3 | CC(C)(Oc1ccc(CCOc2ccc(/N=N/c3ccc(Cl)cc3)cc2)cc1)C(=O)O | 380 | 12 | 23 | 3100 | 60 | Ratio EC50 [8]: 5
4 | CC(C)(Oc1ccc(CCOc2ccc(/N=N/c3ccc(C#N)cc3)cc2)cc1)C(=O)O | 2600 | 12 | 20 | 6500 | 25 | 
5 | CCc1ccc(CCOc2ccc(CC3SC(=O)NC3=O)cc2)nc1 (stereo not drawn) |  |  |  |  |  | Activity [1]: Active; Activity [2]: Active
6 | CC(C)(Oc1ccc(OCCc2ccc(/N=N/c3ccccc3)cc2)cc1)C(=O)O | 250 | 24 | 35 | 2800 | 69 | Activity [9]: Active; Activity [10]: Active; Activity [11]: Active; Activity [12]: Active; EC50 [13]: 6000 nM; Activity [14]: Active
7 | CC(C)(Oc1ccc(CCOc2ccc(/N=N/c3ccc(Br)cc3)cc2)cc1)C(=O)O | 810 | 12 | 29 | 3900 | 71 | Ratio EC50 [8]: 3
8 | CC(C)(Oc1ccc(OCCc2ccc(/N=N/c3ccc([N+](=O)[O-])cc3)cc2)cc1)C(=O)O |  | 10 | 28 | 2300 | 19 | 
9 | CC(C)(Oc1ccc(OCCc2ccc(/N=N/c3ccc(C(F)(F)F)cc3)cc2)cc1)C(=O)O | 2200 | 9 | 12 |  | 37 | 
10 | CC(C)(Oc1ccc(CCOc2ccc(/N=N/c3ccccc3)cc2)cc1)C(=O)O | 2100 | 13 | 39 | 6400 | 56 | 
11 | CC(C)(Oc1ccc(CCOc2ccc(/N=N/c3ccc([N+](=O)[O-])cc3)cc2)cc1)C(=O)O |  | 14 | 21 | 4100 | 11 | 

More lines, main results first:

Row | EC50 [3] [nM] | Emax [4] [%] | Emax [5] [%] | EC50 [6] [nM] | Emax [7] [%] | Compound | further results
12 | 1900 | 8 | 29 | 1100 | 35 | CC(C)(Oc1ccc(OCCc2ccc(/N=N/c3ccc(Br)cc3)cc2)cc1)C(=O)O | 
13 |  |  |  | 210 |  | CCCc1c(OCCCOc2ccc(OCC(=O)O)cc2)ccc(C(C)=O)c1O | Activity [1]: inactive; Activity [2]: inactive; Activity [15]: Active
14 | 510 | 10 | 41 | 1200 | 52 | CC(C)(Oc1ccc(OCCc2ccc(/N=N/c3ccc(Cl)cc3)cc2)cc1)C(=O)O | 
15 | 2400 | 10 | 23 | 1400 | 32 | COc1ccc(/N=N/c2ccc(OCCc3ccc(OC(C)(C)C(=O)O)cc3)cc2)cc1 | 
16 | 2300 | 8 | 24 | 1800 | 35 | CC(C)(Oc1ccc(CCOc2ccc(/N=N/c3ccc(C(F)(F)F)cc3)cc2)cc1)C(=O)O | 

Source: ChEMBL document CHEMBL4433217, “Novel Phenyldiazenyl Fibrate Analogues as PPAR α/γ/δ Pan-Agonists for the Amelioration of Metabolic Syndrome” (ACS Med Chem Lett, 2019)
